Measured values taken from US6177475A, “Methods of using integrin modulators for treatment of inflammation” (priority 1997, dated 2001).

Tests used:
[1] = system: neutrophils (β2 integrins); assay: N-formyl-L-methionyl-L-leucyl-L-phenylalanine-stimulated neutrophil aggregation; format: cell-based
Procedure: Neutrophil aggregation was assayed as described above for the platelet system, with some modifications. Freshly isolated neutrophils were finally suspended in a buffer (120 mM NaCl, 4 mM KCl, 10 mM dextrose, 2 mM CaCl2·2H2 O, 2 mM MgCl2·6H2 O, and 20 mM Tris; pH 7.4) to the final density of 10^7 cells per ml. Aliquots of neutrophil suspension (0.25 ml in siliconized glass cuvettes; 10^7 cells per ml) were stirred in the cell of the aggregometer with 5 micrograms per ml cytochalasin B (1000 rpm, 37° C.) for 1 min. […] Maximum LT (100%) was calibrated with the same buffer.
The requirement of integrins for the formation of cell-to-cell contacts in each of these systems has long been established. It is known that in platelets the relevant integrin is GP IIb/IIIa (β3). Neutrophil aggregation is underlain by interactions of β2 integrins (e.g., LFA-1 and/or Mac-1) with their surface counterstructures, while cohesion of T-cells is supported by both β2 integrins and fibronectin-binding β1 integrins (e.g., VLA-4 and VLA-5).

[2] = system: 111In-labeled neutrophils; assay: Neutrophil recruitment to inflamed joints in rat adjuvant arthritis; format: in vivo; details: 50 mg/kg i.v.; for Accumulation of 111In-labeled Neutrophils (mean ± SEM): 2 h
Procedure: Rat adjuvant arthritis is characterized by integrin-mediated migration of ^51 Cr-labeled monocytes and ^111 In-labeled neutrophils into the inflamed synovium, which attains maximum between days 14 and 21 after the immunization. This model of human rheumatoid arthritis was used to assess in vivo effects of Ajoene on integrins that are known to be modulated by Ajoene in vitro.
Adjuvant arthritis was induced in 6-8 week old inbred male Lewis rats by immunization on the lower back with 0.5 mg Mycobacterium butyricum (Difco Laboratories, Inc., Detroit, Mich.) in 0.05 ml mineral oil in two sites subcutaneously at the base of the tail. All the animals developed polyarticular arthritis between days 11 and 13 after immunization. For clinical scoring, 0-4 points were assigned per limb and tail, based on the severity of erythema, swelling, and limitation of movement (the maximal possible score was 20).
Rat blood monocytes and neutrophils for migration studies were obtained by the hydroxyethyl starch (HES) exchange transfusion technique. The total blood volume of a donor rat was exchanged using 50 ml 6% HES solution in saline (DuPont Chemical Co., Dorval, Canada). After recovery of 40-45 ml blood/HES perfusate, the red cells were allowed to sediment (1 g) and the leukocyte-rich plasma was harvested. The leukocytes were recovered by centrifugation, resuspended in calcium-magnesium-free Tyrode's solution supplemented with 10% platelet-poor plasma (TS-PPP), and centrifuged in a discontinuous 63%/74% gradient of isotonic Percoll (Pharmacia Fine Chemicals, Dorval, Canada). The top layer, containing mononuclear cells (MN), and the cells in the 63%/74% interface, containing neutrophils, were collected, washed, and resuspended in TS-PPP. To obtain purified monocytes, the osmolality of the MN suspension was increased by adding 9% NaCl, and the suspension was centrifuged in a 40%/55%/58% Percoll gradient; monocytes were harvested at 40%/55% and […] interfaces, washed, and resuspended in TS-PPP.
Thereafter, monocytes (10^7 cells/ml) were labeled with 75 microCurie/ml of Na2^51 CrO4 (Amersham, Oakville, Canada) at 37° C. for 30 min. Neutrophils (10^7 cells/ml) were labeled with 1 microCurie/ml of ^111 In oxine (Amersham) for 10 min. Both populations were washed to remove excess labeled material and checked for viability and purity. The viability of either cell population used in the experiments was in excess of 95% (as double-checked by Trypan blue exclusion and neutral red staining). The separation procedure described above ordinarily produced populations that contained no less than 90% monocytes and no less than 95% neutrophils. […]

[3] = system: SupT1LAV-BRU cells / SupT1 cells (HIV-1LAV-BRU); assay: HIV-induced syncytium formation, SupT1LAV-BRU donor with SupT1 recipient; format: cell-based; details: Human immunodeficiency virus 1, SUP-T1, 16 h, read-out: IC50 of Ajoene, syncytium formation
Procedure: Chronically infected and uninfected cell lines (HIV donors and targets, respectively) were maintained as suspension cultures in RPNI-1640 medium supplemented with 10% (v/v) heat-inactivated fetal calf serum, 50 micrograms/ml gentamycin and 2 mM L-glutamine. HIV donors used were (1) a cloned population of H9 cells harboring the genome of HIV-1RF (H9RF cells); and (2) a cloned population of SupT1 cells harboring the genome of HIV-1LAV-BRU (SupT1LAV-BRU cells). To assess the effect of Ajoene on syncytium formation, the donors were mixed with their respective recipients, H9 and SupT1, at a ratio of 1:2 in 96-well flat-bottomed plates (3×10^5 cells per well). Log 10 dilutions of Ajoene were then introduced into the wells, and the cells were cocultured for 16 h. Control wells received the vehicle of Ajoene. By the end of the incubation period syncytia were counted, and the values of IC50 for Ajoene were calculated by plotting relative amounts of syncytia (percent of the syncytia formed in the absence of the compound) against Ajoene concentration.

## C=CCSSC=CC[S+]([O-])CC=C (stereo not shown) [Ajoene, 4,5,9-trithiadodeca-1,6,11-triene-9-oxide]
[1]; Neutrophil, stimulus N-formyl-L-methionyl-L-leucyl-L-phenylalanine 10^-7 M
  IC100: ~10 µM
[1]; added to aggregated neutrophils
  deaggregation of aggregated neutrophils: caused rapid deaggregation
[2]
  inhibition of neutrophil recruitment to the talar joints: ~ 50%
[2]; talar joint, P < 0.001
  Accumulation of 111In-labeled Neutrophils (mean ± SEM): 15,052 cpm per sample
[2]; tarsal joint, P = 0.085
  Accumulation of 111In-labeled Neutrophils (mean ± SEM): 7,353 cpm per sample
[2]; vertebral joints, P = 0.089
  Accumulation of 111In-labeled Neutrophils (mean ± SEM): 3,658 cpm per sample
[3]
  IC50: ~5 nM
